Test results as given in BindingDB's records for doi:10.1021/jm00126a039 (University of Wisconsin-Madison, 1989).
pKi: −log10 of the molar value.

Target: T1, Gastricsin (Rattus norvegicus, UniProt P04073)
T1 sequence (P04073 whole entry): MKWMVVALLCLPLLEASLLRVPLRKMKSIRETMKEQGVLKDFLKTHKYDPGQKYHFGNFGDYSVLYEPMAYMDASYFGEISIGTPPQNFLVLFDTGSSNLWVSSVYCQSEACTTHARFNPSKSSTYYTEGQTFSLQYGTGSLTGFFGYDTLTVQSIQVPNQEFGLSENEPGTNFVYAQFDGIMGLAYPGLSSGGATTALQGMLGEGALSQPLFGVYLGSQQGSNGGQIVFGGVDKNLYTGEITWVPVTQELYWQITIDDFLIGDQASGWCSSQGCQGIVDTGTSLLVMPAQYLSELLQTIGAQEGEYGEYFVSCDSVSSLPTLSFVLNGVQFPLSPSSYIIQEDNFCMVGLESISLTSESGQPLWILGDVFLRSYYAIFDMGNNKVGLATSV
Assay: ChEBML_154148
Description: Inhibition of enzyme pepsin

| pKi | Compound |
| --- | --- |
| 6.96 | CCC(NC(=O)[C@H](C)NC(=O)[C@H](C)CC(=O)[C@H](CC(C)C)NC(=O)[C@@H](NC(=O)CC(C)C)C(C)C)C(=O)O (stereo partly drawn) |
| 8.52 | CCC(NC(=O)[C@H](C)NC(=O)[C@H](C)C[C@H](O)[C@H](CC(C)C)NC(=O)[C@@H](NC(=O)CC(C)C)C(C)C)C(=O)O (stereo partly drawn) |
| 8.52 | CC(C)CCNC(=O)[C@H](C)NC(=O)C[C@H](O)[C@H](CC(C)C)NC(=O)[C@@H](NC(=O)CC(C)C)C(C)C [3-Hydroxy-6-methyl-4-[3-methyl-2-(3-methyl-butyrylamino)-butyrylamino]-heptanoic acid [1-(3-methyl-butylcarbamoyl)-ethyl]-amide] |
